Laboratory results: patent US8906913B2, “Azabicyclohexanes” (Panacea Biotec Limited, priority 2009, dated 2014)
Values after ≈ are worked out from the molar mass of the structure shown. Read-outs that look alike come from different tables or passages of the source. Marks after values point to notes of the source that are not given here. Each block holds one molecule with its values, some of them ahead of it.

What was measured:
[1] = test system: Enterococcus faecalis ATCC 29212 Vancomycin Sensitive; assay: In-vitro antibacterial activity, broth microdilution MIC; format: cell-based
Protocol: (§1) The in-vitro antibacterial activity of the compounds of the present invention (as described in Table 7) was determined by a broth microdilution following the guidelines prescribed by the Clinical and Laboratory Standards Institute (CLSI). This method is described in the CLSI Document M7-A7, Vol. 26, No. 2, “Methods for Dilution Antimicrobial Susceptibility Test for Bacteria that Grow Aerobically; Approved Standard-Seventh Edition”, which is incorporated herein by reference. Minimum Inhibitory Concentration (MIC) is defined as the minimum concentration of test compound which inhibits the growth of bacteria as visible or seen by the naked eye. This test can also be carried out by agar dilution method.
(§2) The compounds of the present invention were tested against a panel of standard microorganisms obtained from ATCC (American type culture collection). Linezolid was used as comparator in all the tests.
(§3) In the broth microdilution method, the compound was dissolved in dimethylsulfoxide and two fold serial dilutions were carried out in 96 well microtitre plates. The inoculum was prepared by adjusting the turbidity of actively growing broth culture and added to the wells to obtain a final bacterial count of ˜2-5×10^4 CFU/well. The microtitre plates were incubated at 35±2° C. for 16-20 h and then read visually.

[2] = test system: Enterococcus faecium ATCC 700221 VRE (Vancomycin resistant E. faecium); assay: as above; format: cell-based
Protocol: as §1, §2, §3

[3] = test system: Staphylococcus aureus ATCC 29213 MSSA (Methicillin sensitive); assay: as above; format: cell-based
Protocol: as §1, §2, §3

[4] = test system: Staphylococcus aureus ATCC 33591 MRSA (Methicillin resistant); assay: as above; format: cell-based
Protocol: as §1, §2, §3

male SWISS albino mice = assay: Forced Swim Test; format: in vivo; conditions: for inhibition in vivo at 32 mg/kg: Mus musculus, 0.25 h, read-out: % decrease in immobility time (dose 32 mg/kg)
Protocol: This test was conducted according to the method of Porsolt et al. (Porsolt, R. D., et al., Behavioural despair in mice: A primary screening test for antidepressants. Arch. in Pharmacodyn. Ther., 229, pp 327-336 (1977)).
A test compound was suspended in deionized water, unless otherwise specified, and this suspension was orally administered to male SWISS albino mice (7 to 9 week old). 15 min later, the mice were placed in a water tank having a water depth of 15 cm and a water temperature of 25±1° C. and immediately thereafter allowed to swim for 6 min. Then, a time during which the mouse was immobile (immobility time) was measured for the last 4 min.

[5] = ATCC29212, Table 7, E. faecalis vancomycin sensitive, broth microdilution, 35±2° C., 16-20 h, read-out: MIC ATCC 29212
[6] = Table 7, broth microdilution, 35±2° C., 16-20 h, read-out: MIC ATTC 700221
[7] = Table 7, S. aureus MSSA, broth microdilution, 35±2° C., 16-20 h, read-out: MIC ATCC 29213
[8] = Table 7, S. aureus MRSA, broth microdilution, 35±2° C., 16-20 h, read-out: MIC ATCC 33591
[9] = Table 8, mice, oral, suspended in deionized water, 15 min before test
[10] = Table 8, mice, oral, 32 mg/kg, suspended in deionized water, 15 min before test

MIC [1, 5]: 1 µg/mL (≈ 2.23 µM) | MIC [2, 6]: 0.25 µg/mL (≈ 0.557 µM) | MIC [3, 7]: 1 µg/mL (≈ 2.23 µM) | MIC [4, 8]: 0.5 µg/mL (≈ 1.11 µM)
SMILES: CC(=O)NC[C@H]1CN(c2ccc(C34CC3CN(c3nc5ccccc5s3)C4)cc2)C(=O)O1 (some centres unmarked)

SMILES: COCCN1CC2CC2(c2ccc(N3CCOCC3)cc2)C1 (centres unmarked)
% decrease in immobility time (dose 64 mg/kg) (male SWISS albino mice; [9]): 62.4 ± 16.3%

SMILES: CCN1C[C@H]2C[C@@]2(c2ccc(N3CCOCC3)cc2)C1
inhibition in vivo at 32 mg/kg (male SWISS albino mice; [10]): 87.7 ± 6%

SMILES: CCN1CC2CC2(c2ccc(N3CCn4cnnc4C3)cc2)C1 (centres unmarked)
% decrease in immobility time (dose 64 mg/kg) (male SWISS albino mice; [9]): 89.6 ± 10.4%

SMILES: COCCN1C[C@H]2C[C@@]2(c2ccc(N3CCOCC3)cc2)C1
% decrease in immobility time (dose 64 mg/kg) (male SWISS albino mice; [9]): 79.2 ± 14.9%

SMILES: CC1CN(c2ccc([C@]34CNC[C@H]3C4)cc2)CC(C)O1 (some centres unmarked)
% decrease in immobility time (dose 64 mg/kg) (male SWISS albino mice; [9]): 63.9 ± 4.8%

SMILES: CCN1CC2CC2(c2cc3cc(N4CCOCC4)ccc3s2)C1 (centres unmarked)
% decrease in immobility time (dose 64 mg/kg) (male SWISS albino mice; [9]): 38.4 ± 2.7%

SMILES: CCN1C[C@H]2C[C@@]2(c2ccc(N3CC(C)OC(C)C3)cc2)C1 (some centres unmarked)
% decrease in immobility time (dose 64 mg/kg) (male SWISS albino mice; [9]): 92.4 ± 7.6%

SMILES: CCN1C[C@@H]2C[C@]2(c2ccc(N3CC(C)OC(C)C3)cc2)C1 (some centres unmarked)
inhibition in vivo at 32 mg/kg (male SWISS albino mice; [10]): 80.9 ± 8.7%

SMILES: CCN1CC2CC2(c2ccc(N3CC(C)OC(C)C3)cc2)C1 (centres unmarked)
inhibition in vivo at 32 mg/kg (male SWISS albino mice; [10]): 81.6 ± 10.1%

SMILES: CCN1C[C@H]2C[C@@]2(c2ccc(N3CCCC3)cc2)C1
inhibition in vivo at 32 mg/kg (male SWISS albino mice; [10]): 97.7 ± 2.3%

SMILES: CCN1CC2CC2(c2ccc(N3CCC(F)C3)cc2)C1 (centres unmarked)
inhibition in vivo at 32 mg/kg (male SWISS albino mice; [10]): 77.1 ± 11.2%

SMILES: CCN1CC2CC2(c2ccc(N3CCC(F)CC3)cc2)C1 (centres unmarked)
inhibition in vivo at 32 mg/kg (male SWISS albino mice; [10]): 62.8 ± 23.4%

SMILES: CCN1C[C@H]2C[C@@]2(c2ccc(N3CCC(F)C3)cc2)C1 (some centres unmarked)
inhibition in vivo at 32 mg/kg (male SWISS albino mice; [10]): 75.5 ± 12.9%

SMILES: CCN1CC2CC2(c2ccc(N3CCN(c4ccccc4)CC3)cc2)C1 (centres unmarked)
% decrease in immobility time (dose 64 mg/kg) (male SWISS albino mice; [9]): 65.8 ± 9.9%

SMILES: CCN1CC2CC2(c2ccc(N3CCOC3=O)cc2)C1 (centres unmarked)
inhibition in vivo at 32 mg/kg (male SWISS albino mice; po): 99.2 ± 0.8%

SMILES: COCC1C2CNCC21c1ccc(N2CCOCC2)cc1 (centres unmarked)
% decrease in immobility time (dose 64 mg/kg) (male SWISS albino mice; Table 8, mice, oral, vehicle 0.25% CMC): 60.8 ± 20.9^z %

SMILES: CCN1CC2C(COC)C2(c2ccc(N3CCOCC3)cc2)C1 (centres unmarked)
% decrease in immobility time (dose 64 mg/kg) (male SWISS albino mice; [9]): 58.4 ± 10.1%

SMILES: CCN1CC2CC2(c2ccc(N3CCOCC3=O)cc2)C1.Cl (centres unmarked)
% decrease in immobility time (dose 64 mg/kg) (male SWISS albino mice; [9]): 88.7 ± 5.2%

SMILES: CCN1C[C@H]2C[C@@]2(c2ccc(N3C[C@H](C)O[C@@H](C)C3)cc2)C1
inhibition in vivo at 32 mg/kg (male SWISS albino mice; [10]): 79.8 ± 10.7%

SMILES: CCOCC1C2CN(CC)CC12c1ccc(N2CCCC2)cc1 (centres unmarked)
inhibition in vivo at 32 mg/kg (male SWISS albino mice; [10]): 80.6 ± 13.7%

MIC [1, 5]: 2 µg/mL (≈ 5.93 µM) | MIC [2, 6]: 1 µg/mL (≈ 2.96 µM) | MIC [3, 7]: 2 µg/mL (≈ 5.93 µM) | MIC [4, 8]: 1 µg/mL (≈ 2.96 µM)
SMILES: CC(=O)NC[C@H]1CN(c2ccc(N3CCOCC3)c(F)c2)C(=O)O1 [Linezolid, reference compound]

MIC [1, 5]: 2 µg/mL (≈ 5.6 µM) | MIC [2, 6]: 2 µg/mL (≈ 5.6 µM) | MIC [3, 7]: 2 µg/mL (≈ 5.6 µM) | MIC [4, 8]: 1 µg/mL (≈ 2.8 µM)
SMILES: CC(=O)NC[C@H]1CN(c2ccc(C34CC3CN(C(C)=O)C4)cc2)C(=O)O1 (some centres unmarked) [drawing 482]

MIC [1, 5]: 4 µg/mL (≈ 12.6 µM) | MIC [2, 6]: 4 µg/mL (≈ 12.6 µM) | MIC [3, 7]: 4 µg/mL (≈ 12.6 µM) | MIC [4, 8]: 2 µg/mL (≈ 6.32 µM)
SMILES: CC(=O)N1CC2CC2(c2ccc(N3C[C@H](CO)OC3=O)cc2)C1 (some centres unmarked) [drawing 484]

SMILES: c1cc(C23CNCC2C3)ccc1N1CCOCC1 (centres unmarked) [drawing 510]
% decrease in immobility time (dose 64 mg/kg) (male SWISS albino mice; [9]): 37.6 ± 14.5%

MIC ([1]; ATCC29212, Table 9, E. faecalis, read-out: Antimicrobial activity (in vitro MIC) ATCC 29212): 2 µg/mL (≈ 5.6 µM) | MIC ([2]; Table 9, read-out: Antimicrobial activity (in vitro MIC) ATCC 700221): 2 µg/mL (≈ 5.6 µM) | MIC ([3]; Table 9, S. aureus MSSA, read-out: Antimicrobial activity (in vitro MIC) ATCC 29213): 2 µg/mL (≈ 5.6 µM) | MIC ([4]; Table 9, S. aureus MRSA, read-out: Antimicrobial activity (in vitro MIC) ATCC 33591): 1 µg/mL (≈ 2.8 µM)
SMILES: CC(=O)NC[C@H]1CN(c2ccc(C34CC3CN(C(C)=O)C4)cc2)C(=O)O1 (some centres unmarked) [drawing 533]
